Measurements as given in US12171230B2, “Herbicidal compositions” (Bayer Aktiengesellschaft, priority 2018, dated 2024).

Key:
Format in all cases: in vivo
Lamium purpureum = experiment: Post-emergence herbicidal action against Lamium purpureum
Experimental: (§1) When the observed efficacies exceed the formal sum total of the values of the tests with individual applications, they also exceed the expected value according to Colby, which is calculated using the formula below and is likewise regarded as an indication of synergism (cf. S. R. Colby; in Weeds 15 (1967) p. 20 to 22): E^C=A+B−([…])
(§2) Here: • A=efficacy of the active compound (A) in % at an application rate of a g a.i./ha; • B=efficacy of the active compound (B) in % at an application rate of b g a.i./ha; • E^C=expected value of the effect of the combination (A)+(B) in % at the combined application rate a+b g a.i./ha.
(§3) Seeds or rhizome pieces of mono- and dicotyledonous weeds are placed in sandy loam in pots, covered with soil and grown in a greenhouse under good growth conditions (temperature, air humidity, water supply). Three weeks after sowing, the test plants were treated at the three-leaf stage with the compositions according to the invention. The compositions according to the invention formulated as spray powders or as emulsion concentrates were sprayed onto the green plant parts in various dosages with an application rate of 300 to 800 l/ha of water (equivalent). After the test plants have been left to stand in the greenhouse under optimal growth conditions for about 3 to 4 weeks, the action of the preparations is scored visually in comparison to untreated controls. The compositions according to the invention also have good post-emergence herbicidal activity against a broad spectrum of economically important gramineous and broadleaf weeds.

Poa annua = experiment: Post-emergence herbicidal action against Poa annua; conditions: for Herbicidal action: 28 DAT
Experimental: as §1, §2, §3

Centaurea cyano = experiment: Post-emergence herbicidal action against Centaurea cyano
Experimental: Seeds or rhizome pieces of mono- and dicotyledonous weeds are placed in sandy loam in pots, covered with soil and grown in a greenhouse under good growth conditions (temperature, air humidity, water supply). Three weeks after sowing, the test plants were treated at the three-leaf stage with the compositions according to the invention. The compositions according to the invention formulated as spray powders or as emulsion concentrates were sprayed onto the green plant parts in various dosages with an application rate of 300 to 800 l/ha of water (equivalent).

Galium aparine = experiment: Post-emergence herbicidal action against Galium aparine
Experimental: as §1, §2, §3

Matricaria inodora = experiment: Post-emergence herbicidal action against Matricaria inodora
Alopecurus myosuroides = experiment: Post-emergence herbicidal action against Alopecurus myosuroides
Bromus sterilis [1] = experiment: Post-emergence herbicidal action against Bromus sterilis
Lolium rigidum [2] = experiment: Post-emergence herbicidal action against Lolium rigidum
[3] = system: Lolium rigidum (resistant biotype); experiment: Post-emergence herbicidal action against Lolium rigidum (resistant biotype)
Phalaris minor [4] = experiment: Post-emergence herbicidal action against Phalaris minor
Viola tricolor [5] = experiment: Post-emergence herbicidal action against Viola tricolor
Lolium rigidum [6] = experiment: Post-emergence herbicidal action against Lolium rigidum; conditions: 16 g of a.i./ha
Description: (§4) The following abbreviations are used in the description and the tables that follow: • g of a.i./ha=grams of active substance (active ingredient) (=100% active compound) per hectare; • The sum total of the effects of the individual applications is reported under E^A; • expected values according to Colby are each reported under E^C.
(§5) The rating period is reported in days after application (DAT).

[7] = system: Lolium rigidum (resistant biotype); experiment: Post-emergence herbicidal action against Lolium rigidum (resistant biotype); conditions: 16 g of a.i./ha
Description: as §4, §5

Phalaris minor [8] = experiment: Post-emergence herbicidal action against Phalaris minor; conditions: 16 g of a.i./ha
Description: as §4, §5

Bromus sterilis [9] = experiment: Post-emergence herbicidal action against Bromus sterilis; remark: listed apart in the source
Bromus sterilis [10] = experiment: as above; conditions: (Z148) post-emergence; for Herbicidal action 14 DAT against Bromus sterilis: g of a.i./ha: 4, 1, 270, 90, 30, 4 + 270, 4 + 90, 4 + 30, 1 + 30
Description: as §4, §5

Lolium rigidum [11] = experiment: Post-emergence herbicidal action against Lolium rigidum; conditions: resistant biotype
Phalaris minor [12] = experiment: Post-emergence herbicidal action against Phalaris minor; conditions: 28 DAT; 16 g a.i./ha
Viola tricolor [13] = experiment: Post-emergence herbicidal action against Viola tricolor; conditions: 28 DAT

CC(C)C1(C)N=C(c2ncccc2C(=O)O)NC1=O (stereo not drawn) [(B4.13) Imazapyr]
40%: Herbicidal action in [%] 14 DAT against Lamium purpureum L. (Lamium purpureum; 4.5 g of a.i./ha) | Herbicidal action in [%] 14 DAT against Galium aparine (Galium aparine; 1.5 g of a.i./ha) | Herbicidal action in [%] 28 DAT against Galium aparine (Galium aparine; 4.5 g of a.i./ha) | Herbicidal action in [%] 14 DAT against Viola tricolor (Viola tricolor [5]; 1.5 g of a.i./ha) | Herbicidal action in [%] 14 DAT against Viola tricolor (Viola tricolor [5]; 4.5 g of a.i./ha)
15%: Herbicidal action in [%] 28 DAT against Poa annua L. (Poa annua; 1.5 g of a.i./ha) | Herbicidal action in [%] 28 DAT against Bromus sterilis (Bromus sterilis [1]; 4.5 g of a.i./ha) | Herbicidal action in [%] 28 DAT against Lolium rigidum (Lolium rigidum [2]; 4.5 g of a.i./ha) | Herbicidal action in [%] 14 DAT against Lolium rigidum (resistant biotype) ([3]; 4.5 g of a.i./ha) | Herbicidal action in [%] 28 DAT against Lolium rigidum (resistant biotype) ([3]; 4.5 g of a.i./ha) | Herbicidal action in [%] 28 DAT against Viola tricolor (Viola tricolor [5]; 4.5 g of a.i./ha)
50%: Herbicidal action in [%] 28 DAT against Galium aparine (Galium aparine; 1.5 g of a.i./ha)
20%: Herbicidal action in [%] 28 DAT against Lamium purpureum L. (Lamium purpureum; 4.5 g of a.i./ha) | Herbicidal action in [%] 28 DAT against Poa annua L. (Poa annua; 4.5 g of a.i./ha) | Herbicidal action in [%] 28 DAT against Matricaria inodora (Matricaria inodora; 4.5 g of a.i./ha) | Herbicidal action in [%] 14 DAT against Alopecurus myosuroides (Alopecurus myosuroides; 4.5 g of a.i./ha) | Herbicidal action in [%] 28 DAT against Alopecurus myosuroides (Alopecurus myosuroides; 4.5 g of a.i./ha) | Herbicidal action in [%] 14 DAT against Lolium rigidum (Lolium rigidum [2]; 4.5 g of a.i./ha) | Herbicidal action in [%] 28 DAT against Phalaris minor (Phalaris minor [4]; 4.5 g of a.i./ha) | Herbicidal action in [%] 28 DAT against Viola tricolor (Viola tricolor [5]; 1.5 g of a.i./ha)
10%: Herbicidal action in [%] 14 DAT against Centaurea cyanus (Centaurea cyano; 4.5 g of a.i./ha) | Herbicidal action in [%] 14 DAT against Alopecurus myosuroides (Alopecurus myosuroides; 1.5 g of a.i./ha) | Herbicidal action in [%] 28 DAT against Bromus sterilis (Bromus sterilis [1]; 1.5 g of a.i./ha) | Herbicidal action in [%] 14 DAT against Lolium rigidum (resistant biotype) ([3]; 1.5 g of a.i./ha) | Herbicidal action in [%] 28 DAT against Phalaris minor (Phalaris minor [4]; 1.5 g of a.i./ha) | Herbicidal action in [%] 14 DAT against Viola tricolor (Viola tricolor [5]; 0.5 g of a.i./ha)
0%: Herbicidal action in [%] 14 DAT against Lamium purpureum L. (Lamium purpureum; 0.5 g of a.i./ha) | Herbicidal action in [%] 28 DAT against Lamium purpureum L. (Lamium purpureum; 0.5 g of a.i./ha) | Herbicidal action in [%] 28 DAT against Lamium purpureum L. (Lamium purpureum; 1.5 g of a.i./ha) | Herbicidal action in [%] 28 DAT against Poa annua L. (Poa annua; 0.5 g of a.i./ha) | Herbicidal action in [%] 14 DAT against Poa annua L. (Poa annua; 1.5 g of a.i./ha) | Herbicidal action in [%] 14 DAT against Poa annua L. (Poa annua; 4.5 g of a.i./ha) | Herbicidal action in [%] 14 DAT against Matricaria inodora (Matricaria inodora; 0.5 g of a.i./ha) | Herbicidal action in [%] 28 DAT against Matricaria inodora (Matricaria inodora; 0.5 g of a.i./ha) | Herbicidal action in [%] 14 DAT against Bromus sterilis (Bromus sterilis [1]; 0.5 g of a.i./ha) | Herbicidal action in [%] 14 DAT against Bromus sterilis (Bromus sterilis [1]; 1.5 g of a.i./ha) | Herbicidal action in [%] 14 DAT against Lolium rigidum (Lolium rigidum [2]; 1.5 g of a.i./ha) | Herbicidal action in [%] 28 DAT against Lolium rigidum (Lolium rigidum [2]; 1.5 g of a.i./ha) | Herbicidal action in [%] 14 DAT against Lolium rigidum (resistant biotype) ([3]; 0.5 g of a.i./ha) | Herbicidal action in [%] 28 DAT against Lolium rigidum (resistant biotype) ([3]; 1.5 g of a.i./ha) | Herbicidal action in [%] 14 DAT against Phalaris minor (Phalaris minor [4]; 0.5 g of a.i./ha) | Herbicidal action in [%] 28 DAT against Phalaris minor (Phalaris minor [4]; 0.5 g of a.i./ha) | Herbicidal action in [%] 14 DAT against Phalaris minor (Phalaris minor [4]; 1.5 g of a.i./ha)
30%: Herbicidal action in [%] 28 DAT against Galium aparine (Galium aparine; 0.5 g of a.i./ha)
25%: Herbicidal action in [%] 14 DAT against Lamium purpureum L. (Lamium purpureum; 1.5 g of a.i./ha) | Herbicidal action in [%] 28 DAT against Centaurea cyanus (Centaurea cyano; 4.5 g of a.i./ha) | Herbicidal action in [%] 14 DAT against Galium aparine (Galium aparine; 4.5 g of a.i./ha) | Herbicidal action in [%] 14 DAT against Bromus sterilis (Bromus sterilis [1]; 4.5 g of a.i./ha) | Herbicidal action in [%] 14 DAT against Phalaris minor (Phalaris minor [4]; 4.5 g of a.i./ha)

COC(=O)C1=C[C@@H](NC(=O)[C@@]2(C)CC(c3cc(F)cc(F)c3)=NO2)CO1 [Compound A6, methyl (3R)-3-[[(5R)-3-(3,5-difluorophenyl)-5-methyl-4H-isoxazole-5-carbonyl]amino]-2,3-dihydrofuran-5-carboxylate]
80%: Herbicidal action (Bromus sterilis [9]; 14 DAT, 4 g a.i./ha) | Herbicidal action 14 DAT against Bromus sterilis (Bromus sterilis [10]; 4 g of a.i./ha)
85%: Herbicidal action 14 DAT against Lamium purpureum L. (Lamium purpureum; 4 g of a.i./ha) | Herbicidal action (Centaurea cyano; 14 DAT, 4 g a.i./ha) | Herbicidal action (Bromus sterilis [9]; 14 DAT, 16 g a.i./ha)
90%: Herbicidal action 28 DAT against Lolium rigidum (Lolium rigidum [6]) | Herbicidal action 28 DAT against Phalaris minor (Phalaris minor [8]) | Herbicidal action (Phalaris minor [12])
60%: Herbicidal action 28 DAT against Galium aparine (Galium aparine; 1 g of a.i./ha) | Herbicidal action (Viola tricolor [13]; 16 g a.i./ha)
50%: Herbicidal action (Poa annua; 1 g a.i./ha) | Herbicidal action (Bromus sterilis [9]; 28 DAT, 1 g a.i./ha) | Herbicidal action 28 DAT against Bromus sterilis (Bromus sterilis [10]; g of a.i./ha: 1, 270, 90, 30, 1 + 270, 1 + 90, 1 + 30) | Herbicidal action (Lolium rigidum [11]; 14 DAT, 1 g a.i./ha) | Herbicidal action (Viola tricolor [13]; 4 g a.i./ha)
70%: Herbicidal action 28 DAT against Poa annua L. (Poa annua; 16 g of a.i./ha) | Herbicidal action (Poa annua; 16 g a.i./ha) | Herbicidal action (Centaurea cyano; 28 DAT, 4 g a.i./ha) | Herbicidal action 14 DAT against Matricaria inodora (Matricaria inodora; 16 g of a.i./ha) | Herbicidal action 28 DAT against Lolium rigidum (resistant biotype) [7] | Herbicidal action (Lolium rigidum [11]; 28 DAT, 16 g a.i./ha)
75%: Herbicidal action 28 DAT against Lamium purpureum L. (Lamium purpureum; 1 g of a.i./ha) | Herbicidal action 14 DAT against Bromus sterilis (Bromus sterilis [10]; 1 g of a.i./ha)
40%: Herbicidal action (Centaurea cyano; 14 DAT, 1 g a.i./ha) | Herbicidal action (Centaurea cyano; 28 DAT, 1 g a.i./ha) | Herbicidal action (Matricaria inodora; 14 DAT, 1 g a.i./ha)
